According to the supplement of paper PMC8671470:

How the values were obtained:
Assay in all cases: cell viability (% survival relative to DMSO control, bortezomib = 0%); higher = less cytotoxic
Details in all cases: 72 h
LAMA-84 = test system: LAMA-84
How it was run: (§1)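 Seeding density for each of the 10 AML and 5 CML cell lines was titrated to the linear growth range. Cells went into 384-well plates pre-printed in duplicate with compounds at 1, 10, 100, 1000 or 10000 nM and were held for 72 h at 37 °C with 5% CO2. CellTiter-Glo luminescence then provided the readout. Percent survival is expressed relative to vehicle at 100% and a 10 µM positive control at 0%, averaged over duplicates.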

MOLM-13 = test system: MOLM-13
How it was run: as §1

Mono-Mac-6 = test system: Mono-Mac-6
How it was run: as §1

SHI-1 = test system: SHI-1
How it was run: as §1

| Compound | cell viability (LAMA-84; 1 nM) | cell viability (LAMA-84; 10 nM) | cell viability (LAMA-84; 100 nM) | cell viability (LAMA-84; 1000 nM) | cell viability (LAMA-84; 10000 nM) | cell viability (MOLM-13; 1 nM) | cell viability (MOLM-13; 10 nM) | cell viability (MOLM-13; 100 nM) | cell viability (MOLM-13; 1000 nM) | cell viability (MOLM-13; 10000 nM) | cell viability (Mono-Mac-6; 1 nM) | cell viability (Mono-Mac-6; 10 nM) | cell viability (Mono-Mac-6; 100 nM) | cell viability (Mono-Mac-6; 1000 nM) | cell viability (Mono-Mac-6; 10000 nM) | cell viability (SHI-1; 1 nM) | cell viability (SHI-1; 10 nM) | cell viability (SHI-1; 100 nM) | cell viability (SHI-1; 1000 nM) | cell viability (SHI-1; 10000 nM) |
| --- | --- | --- | --- | --- | --- | --- | --- | --- | --- | --- | --- | --- | --- | --- | --- | --- | --- | --- | --- | --- |
| [N-]=[N+]=CC(=O)CC[C@H](N)C(=O)O [6-Diazo-5-oxo-L-norleucine] | 98.5% | 98.8% | 101% | 97.7% | 100% | 106% | 111% | 119% | 101% | 116% | 88% | 90.2% | 92.4% | 97.8% | 104% | 110% | 101% | 103% | 104% | 99% |
| Sc1ncnc2nc[nH]c12 [6-mercaptopurine] | 102% | 86.6% | 87.9% | 55.3% | 12.6% | 117% | 87.6% | 108% | 53% | 16% | 97.2% | 97.7% | 85.9% | 53.7% | 15.5% | 113% | 98.6% | 102% | 66.2% | 32.6% |
| O=C(O)CC[C@H](NC(=O)c1ccc([N+](=O)[O-])cc1)C(=O)O [(S)-2-(4-Nitrobenzamido)pentanedioic acid] | 98.8% | 77.2% | 99.6% | 103% | 100% | 89% | 124% | 94.6% | 98.5% | 105% | 96% | 103% | 94.9% | 97.6% | 98% | 97.5% | 107% | 102% | 102% | 93.9% |
| O=C1Nc2ccccc2/C1=C\NCCc1ccc(O)c(O)c1 [AC1NZZMF] | 107% | 108% | 102% | 101% | 107% | 97.6% | 104% | 101% | 108% | 88.9% | 105% | 102% | 102% | 96.9% | 74.4% | 88.8% | 108% | 89% | 103% | 90.8% |
| Cc1ccc(S(=O)(=O)NC2c3ccccc3Oc3ccccc32)cc1 [AH-7614] | 93.7% | 98.8% | 101% | 95.5% | 105% | 95.3% | 113% | 111% | 102% | 93.7% | 101% | 95.7% | 111% | 94.9% | 101% | 105% | 110% | 105% | 97.1% | 85.5% |
| C[C@]12CC[C@H](O)CC1=CC[C@@H]1[C@@H]2CC[C@]2(C)C(c3cccnc3)=CC[C@@H]12 [Abiraterone] | 105% | 106% | 94.1% | 102% | 108% | 113% | 122% | 111% | 117% | 69.9% | 97.7% | 101% | 85.2% | 96.1% | 108% | 119% | 108% | 106% | 108% | 112% |
| O=C(COc1ccc(C(=O)c2ccccc2)cc1)NC1CCN(Cc2ccccc2)CC1 [AdipoRon] | 96.9% | 102% | 93.8% | 96.7% | 61.1% | 94% | 106% | 93.6% | 105% | 76.5% | 96.3% | 101% | 99.9% | 98.1% | 90.7% | 92.5% | 104% | 96% | 103% | 71.7% |
